A short description of assay [1]: Evaluated for cytotoxicity under aerobic conditions against AA8 cells using microassay. The assay is classed as cell-based. As to conditions: Cricetulus griseus, CHO-AA8.
Assay [2] in a line: Evaluated for cytotoxicity under aerobic conditions against UV4 cells using microassay. Type of assay: cell-based. As to conditions: Cricetulus griseus.
For a further assay, the species on record is Cricetulus griseus. Briefly: Evaluated for hypersensitivity factor (HF) (HF = IC50 AA8 / IC50 UV-4) values are intra experiment ratios. The assay is classed as functional.

`O=[N+]([O-])c1cccc(N(CCO)CCO)c1`: the concentration for half-maximal inhibition (IC50) in assay [1] is 3060 µM.

On to `CS(=O)(=O)OCCN(CCOS(C)(=O)=O)c1ccccc1`, for which the values for the half-inhibitory concentration (IC50) in assay [2] and in assay [1] were 0.59 µM and 13.6 µM, respectively. Also, in the assay filed under Cricetulus griseus, the Ratio was 30.

`CS(=O)(=O)OCCN(CCOS(C)(=O)=O)c1ccc([N+](=O)[O-])cc1` gave an IC50 in assay [2] of 1.39 µM. Also, the Ratio in the assay listed under Cricetulus griseus is more than 1.

In assay [1], `O=[N+]([O-])c1ccccc1N(CCO)CCO` registered an IC50 of 7970 µM.

In turn, `O=[N+]([O-])c1ccc(N(CCO)CCO)cc1` yielded a half-inhibitory concentration (IC50) in assay [1] of 3200 µM.

A word on the IC50: it is the concentration that inhibits the measured activity by half.

Source of the values: ChEMBL document CHEMBL1124922 (J Med Chem, 1990).
